In ChEMBL document CHEMBL1806440, “N-β-glycosyl sulfamides are selective inhibitors of the cancer associated carbonic anhydrase isoforms IX and XII” (Bioorg Med Chem Lett, 2011):

Biological target: Carbonic anhydrase 9 (Homo sapiens, UniProt Q16790)

| SMILES | Ki [nM] |
| --- | --- |
| CC(=O)OC[C@H]1O[C@@H](NS(N)(=O)=O)C[C@@H](OC(C)=O)[C@H]1OC(C)=O | 16 |
| CC(=O)OC[C@H]1O[C@@H](NS(N)(=O)=O)[C@H](OC(C)=O)[C@@H](OC(C)=O)[C@@H]1OC(C)=O | 7.7 |
| CC(=O)OC[C@H]1O[C@@H](NS(N)(=O)=O)[C@H](OC(C)=O)[C@@H](OC(C)=O)[C@H]1OC(C)=O | 7.2 |
| CC(=O)OC[C@H]1O[C@@H](NS(N)(=O)=O)[C@@H](OC(C)=O)[C@@H](OC(C)=O)[C@@H]1OC(C)=O | 5 |
| C[C@H]1O[C@@H](NS(N)(=O)=O)[C@@H](O)[C@@H](O)[C@@H]1O | 3140 |
| CC(=O)OC[C@H]1O[C@@H](NS(N)(=O)=O)C[C@@H](OC(C)=O)[C@@H]1OC(C)=O | 13 |
